Experimental data reported in patent US6677460B1, “Aromatic carboxylic acid bicyclic sulfur compounds” (Idemitsu Kosan Company, Limited, priority 1993, dated 2004).

How the values were obtained:
[1] = test system: barnyard grass; assay: Upland soil treatment test (5); type: in vivo; conditions: dosage 100 g a.i./hectare, 20th day after treatment; also: ranges in brackets are in %
Description: (§1) 90 Parts by weight of the above carrier and 10 parts by weight of each of Compounds obtained in the above Preparation Examples were uniformly pulverized and mixed to obtain herbicides. Further, for Herbicide Comparative Examples, comparative herbicides were prepared by uniformly pulverizing and mixing 90 parts by weight of the above carrier and 10 parts by weight of each of the following Compounds x, y, A, B and C.
(§2) (5) Biological Test (Upland Soil Treatment Test, Herbicide Examples 10-26 and Comparative Example 9)
(§3) Seeds of weeds such as large crabgrass, barnyard grass, green foxtail, cocklebur, velvetleaf and slender amaranth and seeds of corn, wheat and barley were sown in 1/5,000-are Wagner pots filled with upland soil, and covered with upland soil. Then, a predetermined amount of the herbicide prepared in the above (1) was suspended in water and uniformly sprayed onto the soil surface. Thereafter, the plants were grown in the greenhouse, and on 20th day after the treatment, the herbicide was evaluated for herbicidal efficacy.
(§4) The dosage of each herbicide is indicated as an amount of the active ingredient per hectare. Further, air-dried weight were measured, and herbicidal efficacy and the pytotoxicity to corn are shown on the basis of the ratings described below.

[2] = test system: slender amaranth; assay: Upland soil treatment test (5); type: in vivo; conditions: dosage 100 g a.i./hectare, 20th day after treatment; also: ranges in brackets are in %
Description: as §1, §2, §3, §4

[3] = test system: green foxtail; assay: Upland soil treatment test (5); type: in vivo; conditions: dosage 100 g a.i./hectare, 20th day after treatment; also: ranges in brackets are in %
Description: as §1, §2, §3, §4

[4] = test system: large crabgrass; assay: Upland soil treatment test (5); type: in vivo; conditions: dosage 100 g a.i./hectare, 20th day after treatment; also: ranges in brackets are in %
Description: as §1, §2, §3, §4

[5] = test system: cocklebur; assay: Upland soil treatment test (5); type: in vivo; conditions: dosage 100 g a.i./hectare, 20th day after treatment; also: ranges in brackets are in %
Description: as §1, §2, §3, §4

[6] = test system: velvetleaf; assay: Upland soil treatment test (5); type: in vivo; conditions: dosage 100 g a.i./hectare, 20th day after treatment; also: ranges in brackets are in %
Description: as §1, §2, §3, §4

[7] = test system: corn; assay: Upland soil treatment test (5), phytotoxicity; type: in vivo; conditions: dosage 100 g a.i./hectare, 20th day after treatment
Description: as §1, §2, §3, §4

[8] = test system: barnyard grass; assay: Submergence soil treatment test (4); type: in vivo; conditions: twenty days after treatment; also: ranges in brackets are in %
Description: as §1
(§5) (4) Biological Test (Submergence Soil Treatment Test, Herbicide Examples 5˜9 and Comparative Examples 5˜8 and Reference Example 1 and 2)
(§6) 1/15,500-are porcelain pots were filled with paddy field soil, and seeds of barnyard grass and umbrella plant were sown in a surface layer of the soil, and paddy rice at the 2-leaf stage was transplanted. Then, the weeds were treated by uniformly spraying a diluted solution of a predetermined amount of the herbicide prepared in the above (1) onto the water surface at the time of germination of the weeds, and then the pots were allowed to stand in a greenhouse while water was properly sprayed. […] The dosage of each herbicide is shown as an amount of the active ingredient per 10 areas. Further, air-dried weights were measured, and the herbicidal efficacy and the phytotoxicity to the paddy rice were shown as follows.

[9] = test system: umbrella plant; assay: Submergence soil treatment test (4); type: in vivo; conditions: twenty days after treatment; also: ranges in brackets are in %
Description: as §1, §5, §6

[10] = test system: paddy rice; assay: Submergence soil treatment test (4), phytotoxicity; type: in vivo; conditions: twenty days after treatment
Description: as §1, §5, §6

SMILES | melting point [°C] | Herbicidal Efficacy barnyard grass [1] | Herbicidal Efficacy slender amaranth [2] | Herbicidal Efficacy green foxtail [3] | Herbicidal Efficacy large crabgrass [4] | Herbicidal Efficacy cocklebur [5] | Herbicidal Efficacy velvetleaf [6] | Phyto-toxicity to corn [7] | Herbicidal Effficacy barnyard grass ([8]; dosage 1 g a.i./10 are) | Herbicidal Effficacy barnyard grass ([8]; dosage 3 g a.i./10 are) | Herbicidal Effficacy umbrella plant ([9]; dosage 1 g a.i./10 are) | Herbicidal Effficacy umbrella plant ([9]; dosage 3 g a.i./10 are) | Phytotoxicity to paddy rice ([10]; dosage 1 g a.i./10 are) | Phytotoxicity to paddy rice ([10]; dosage 3 g a.i./10 are) | Herbicidal Effficacy barnyard grass ([8]; dosage 10 g a.i./10 are) | Herbicidal Effficacy umbrella plant ([9]; dosage 10 g a.i./10 are) | Phytotoxicity to paddy rice ([10]; dosage 10 g a.i./10 are)
CCC(=O)Oc1c(C(=O)c2cc(C)c3c(c2C)C(C)(C)CCS3)cnn1CC [Compound 19] | 178 to 179.6 | 5 (0) | 5 (0) | 2 (41-60) | 5 (0) | 5 (0) | 5 (0) | 0 (100) | – | – | – | – | – | – | – | – | –
CCn1ncc(C(=O)c2cc(C)c3c(c2C)C(C)(C)CCS3(=O)=O)c1OC(C)=O [Compound 18, 4,4,5,8-tetramethyl-6-(1-ethyl-5-acetoxypyrazol-4-yl)carbonylthiochroman-1,1-dioxide] | 187.7 to 191.4 | 5 (0) | 5 (0) | 4 (1-20) | 5 (0) | 5 (0) | 5 (0) | 0 (100) | – | – | – | – | – | – | – | – | –
CCn1ncc(C(=O)c2cc(C)c3c(c2C)C(C)(C)CCS3(=O)=O)c1OS(=O)(=O)c1ccccc1C [Compound 16] | – | 5 (0) | 5 (0) | 5 (0) | 5 (0) | 5 (0) | 5 (0) | 0 (100) | 5 (0) | 5 (0) | 2 (41-60) | 5 (0) | 0 (100) | 0 (100) | – | – | –
CCn1ncc(C(=O)c2cc(C)c3c(c2C)C(=NOC)CCS3(=O)=O)c1O [Comp'd C, reference compound] | – | – | – | – | – | – | – | – | – | 0 (81-100) | – | 3 (21-40) | – | 2 (90-94) | 4 (1-20) | 5 (0) | 5
CCn1ncc(C(=O)c2cc(C)c3c(c2C)C(C)(C)CCS3)c1OC(=O)c1ccc(Cl)cc1Cl [Compound 23] | 165.2 to 169 | – | – | – | – | – | – | – | – | – | – | – | – | – | – | – | –
CCn1ncc(C(=O)c2cc(Cl)c3c(c2Cl)C(C)(C)CCS3)c1O [Compound 3] | 263.7 to 263.9 | – | – | – | – | – | – | – | – | – | – | – | – | – | – | – | –
CCCCS(=O)(=O)Oc1c(C(=O)c2cc(C)c3c(c2C)C(C)(C)CCS3(=O)=O)cnn1CC [Compound 10] | – | 5 (0) | 5 (0) | 2 (41-60) | 5 (0) | 3 (21-40) | 5 (0) | 0 (100) | 5 (0) | – | 5 (0) | – | 0 (100) | – | – | – | –
CCn1ncc(C(=O)c2cc(C)c3c(c2C)C(C)(C)CCS3(=O)=O)c1OS(=O)(=O)c1ccc(OC)cc1 [Compound 14] | – | 5 (0) | 5 (0) | 2 (41-60) | 5 (0) | 5 (0) | 5 (0) | 0 (100) | 5 (0) | – | 3 (21-40) | – | 0 (100) | – | – | – | –
CCn1ncc(C(=O)c2cc(C)c3c(c2C)C(C)(C)CCS3)c1OS(=O)(=O)CC [Compound 8] | 164.1 to 165.7 | 4 (1-20) | – | 4 (1-20) | 5 (0) | 5 (0) | 5 (0) | 0 (100) | – | – | – | – | – | – | – | – | –
CCCCCCCCS(=O)(=O)Oc1c(C(=O)c2cc(C)c3c(c2C)C(C)(C)CCS3(=O)=O)cnn1CC [Compound 11] | – | 3 (21-40) | 1 (61-80) | 2 (41-60) | 5 (0) | 3 (21-40) | 5 (0) | 0 (100) | 5 (0) | – | 5 (0) | – | 0 (100) | – | – | – | –
CCn1ncc(C(=O)c2cc(C)c3c(c2C)C(C)(C)CCS3(=O)=O)c1OS(C)(=O)=O [Compound 7, 4,4,5,8-tetramethyl-6-(1-ethyl-5-methanesulfonyloxypyrazol-4-yl)carbonylthiochroman-1,1-dioxide] | 202.2 to 203.4 | 5 (0) | 5 (0) | 4 (1-20) | 5 (0) | 5 (0) | 5 (0) | 0 (100) | – | – | – | – | – | – | – | – | –
